Experimental data published in patent US10280170B2, “Substituted 4,5,6,7-tetrahydro-pyrazolo[1,5-a]pyrazine derivatives and 5,6,7,8-tetrahydro-4H-pyrazolo[1,5-a][1,4]diazepine derivatives as Ros1 inhibitors” (Janssen Pharmaceutica NV, priority 2014, dated 2019).
Like-named read-outs stand apart in the source and are kept apart here.

Columns and labels:
Ros1 enzyme = target: T1, Ros1 enzyme (Homo sapiens, UniProt P08922); test: Ros1 enzymatic assay; type: biochemical; conditions: Ros1 enzymatic assay; read-out: ROS1 pIC50 (converted)
T1 construct: 0.5 μg/ml Ros1 enzyme
Description: Compounds were spotted onto white 384-well Proxiplate plus plates (Perkin Elmer) to which 5 μl of enzyme mix (0.5 μg/ml Ros1 enzyme, 50 mM Tris-HCl pH7.5, 1 mM EGTA, 10 mM MgCl2, 0.01% Tween-20) and 5 μl of substrate mix (6 μg/ml IRS-Tide [American Peptide Company], 20 μM ATP, 13.33 μCi/ml ATP (adenosine 5′-triphosphate) P^33, 50 mM Tris-HCl pH7.5, 1 mM EGTA (ethylene glycol-bis(2-aminoethylether)-N,N,N′,N′-tetraacetic acid), 10 mM MgCl2, 0.01% Tween-20) were added. After incubation for 120 minutes at room temperature, 10 μl of stop reaction buffer (5 mM EDTA, 50 μM ATP, 0.1% BSA (bovine serum albumin), 0.1% Triton X-100, 50 mM Tris-HCl pH7.5, 1 mM EGTA, 10 mM MgCl2, 0.01% Tween-20) containing 2 mg/ml streptavidin coupled polystyrene imaging beads (Amersham Biosciences) was added and incubated for 15 minutes at room temperature. Plates were centrifuged for 3 minutes at 1500 rpm and signals detected in a LEADseeker imaging system (GE).

[1] = target: T2, Ba/F3 cells containing Ros1 wild-type protein (Homo sapiens, UniProt P08922, cells depend on it, form not given); test: Ba/F3-Ros1 cell proliferation assay, wild-type Ros1; type: cell-based, murine; conditions: without IL-3
T2 construct: The background only speaks of 'a number of different unrelated proteins' and names SLC34A2-ROS1 for HCC78 cells
Description: (§1) Ba/F3-Ros1 Cell Proliferation Assay
(§2) This assay was carried out with Ba/F3 cells containing three different versions of Ros1: the wild-type protein, protein with a mutation at the gatekeeper residue (L2026M), and protein with a mutation identified in a tumor from a patient that became resistant to crizotinib (Xalkori®) treatment (G2032R). Compounds were solubilized in 100% DMSO (dimethyl sulfoxide) and sprayed into polystyrene, tissue culture treated 384-well plates. A 50 μl volume of cell culture medium (phenol red free RPMI-1640, 10% FBS (fetal bovine serum), 2 mM L-Glutamine) containing 20000 Ba/F3-Ros1 cells was added to each well and the plates were placed in an incubator at 37° C. and 5% CO2. After 24 hours, 10 μl of Alamar Blue solution (0.5 mM K3Fe(CN)6, 0.5 mM K4Fe(CN)6, 0.15 mM Resazurin and 100 mM Phosphate Buffer) was added to the wells, incubated for 4 hours at 37° C. and 5% CO2 before RFU's (Relative Fluorescence Units) (ex. 540 nm., em. 590 nm.) were measured in a fluorescence plate reader.

[2] = target: Ba/F3 cells containing Ros1 with a mutation at the gatekeeper residue (L2026M) (Homo sapiens, UniProt P08922, L2026M, cells depend on it, form not given); test: Ba/F3-Ros1 cell proliferation assay, L2026M gatekeeper mutant; type: cell-based, murine; conditions: without IL-3
Description: as §1, §2

[3] = test system: Ba/F3 cells containing Ros1 wild-type protein + IL-3; test: Ba/F3-Ros1 cell proliferation counter-screen, wild-type protein in the presence of 10 ng/ml murine IL-3; type: cell-based; conditions: Mus musculus, BaF3, 24 h, read-out: BaF3-ROS1 + IL3 pIC50 (converted)
Description: as §2
As a counter-screen the same experiment was performed for the wild-type protein in the presence of 10 ng/ml murine IL-3.

[4] = test system: HCC78 non-small cell lung cancer cells; test: HCC78 cell proliferation assay; type: cell-based; conditions: for EC50: Homo sapiens, HCC78, 96 h, read-out: HCC-78 PROL pEC50 (converted)
Description: HCC78 Cell Proliferation Assay
Approximately 1000 HCC78 non-small cell lung cancer cells in 180 μl of cell culture medium (RPMI-1640, 10% FBS, 2 mM L-Glutamine, 10 mM Hepes, 1 mM sodium pyruvate, 4.5 g/L glucose, 1.5 g/L sodium bicarbonate, 25 μg/ml Gentamycin) were seeded in each well of a 96-well polystyrene, tissue-culture treated plate and incubated at 37° C. and 5% CO2. After 24 hours, compounds were diluted in cell culture medium from which 20 μl was added to the wells containing cells and incubated for 4 days at 37° C. and 5% CO2. A 5 mg/ml solution of the tetrazolium dye MTT was prepared in PBS (phosphate-buffered saline) and 25 μl was added to each well. After 2 hours the medium was removed and replaced by 125 μL of 4/1 DMSO/glycine buffer (0.1M glycine, 0.1M NaCl, pH 10.5) before absorbance was determined at 538 nm.

[5] = counter-screen, wild-type, 10 ng/ml murine IL-3

T2 sequence (P08922 whole entry, stated change not applied): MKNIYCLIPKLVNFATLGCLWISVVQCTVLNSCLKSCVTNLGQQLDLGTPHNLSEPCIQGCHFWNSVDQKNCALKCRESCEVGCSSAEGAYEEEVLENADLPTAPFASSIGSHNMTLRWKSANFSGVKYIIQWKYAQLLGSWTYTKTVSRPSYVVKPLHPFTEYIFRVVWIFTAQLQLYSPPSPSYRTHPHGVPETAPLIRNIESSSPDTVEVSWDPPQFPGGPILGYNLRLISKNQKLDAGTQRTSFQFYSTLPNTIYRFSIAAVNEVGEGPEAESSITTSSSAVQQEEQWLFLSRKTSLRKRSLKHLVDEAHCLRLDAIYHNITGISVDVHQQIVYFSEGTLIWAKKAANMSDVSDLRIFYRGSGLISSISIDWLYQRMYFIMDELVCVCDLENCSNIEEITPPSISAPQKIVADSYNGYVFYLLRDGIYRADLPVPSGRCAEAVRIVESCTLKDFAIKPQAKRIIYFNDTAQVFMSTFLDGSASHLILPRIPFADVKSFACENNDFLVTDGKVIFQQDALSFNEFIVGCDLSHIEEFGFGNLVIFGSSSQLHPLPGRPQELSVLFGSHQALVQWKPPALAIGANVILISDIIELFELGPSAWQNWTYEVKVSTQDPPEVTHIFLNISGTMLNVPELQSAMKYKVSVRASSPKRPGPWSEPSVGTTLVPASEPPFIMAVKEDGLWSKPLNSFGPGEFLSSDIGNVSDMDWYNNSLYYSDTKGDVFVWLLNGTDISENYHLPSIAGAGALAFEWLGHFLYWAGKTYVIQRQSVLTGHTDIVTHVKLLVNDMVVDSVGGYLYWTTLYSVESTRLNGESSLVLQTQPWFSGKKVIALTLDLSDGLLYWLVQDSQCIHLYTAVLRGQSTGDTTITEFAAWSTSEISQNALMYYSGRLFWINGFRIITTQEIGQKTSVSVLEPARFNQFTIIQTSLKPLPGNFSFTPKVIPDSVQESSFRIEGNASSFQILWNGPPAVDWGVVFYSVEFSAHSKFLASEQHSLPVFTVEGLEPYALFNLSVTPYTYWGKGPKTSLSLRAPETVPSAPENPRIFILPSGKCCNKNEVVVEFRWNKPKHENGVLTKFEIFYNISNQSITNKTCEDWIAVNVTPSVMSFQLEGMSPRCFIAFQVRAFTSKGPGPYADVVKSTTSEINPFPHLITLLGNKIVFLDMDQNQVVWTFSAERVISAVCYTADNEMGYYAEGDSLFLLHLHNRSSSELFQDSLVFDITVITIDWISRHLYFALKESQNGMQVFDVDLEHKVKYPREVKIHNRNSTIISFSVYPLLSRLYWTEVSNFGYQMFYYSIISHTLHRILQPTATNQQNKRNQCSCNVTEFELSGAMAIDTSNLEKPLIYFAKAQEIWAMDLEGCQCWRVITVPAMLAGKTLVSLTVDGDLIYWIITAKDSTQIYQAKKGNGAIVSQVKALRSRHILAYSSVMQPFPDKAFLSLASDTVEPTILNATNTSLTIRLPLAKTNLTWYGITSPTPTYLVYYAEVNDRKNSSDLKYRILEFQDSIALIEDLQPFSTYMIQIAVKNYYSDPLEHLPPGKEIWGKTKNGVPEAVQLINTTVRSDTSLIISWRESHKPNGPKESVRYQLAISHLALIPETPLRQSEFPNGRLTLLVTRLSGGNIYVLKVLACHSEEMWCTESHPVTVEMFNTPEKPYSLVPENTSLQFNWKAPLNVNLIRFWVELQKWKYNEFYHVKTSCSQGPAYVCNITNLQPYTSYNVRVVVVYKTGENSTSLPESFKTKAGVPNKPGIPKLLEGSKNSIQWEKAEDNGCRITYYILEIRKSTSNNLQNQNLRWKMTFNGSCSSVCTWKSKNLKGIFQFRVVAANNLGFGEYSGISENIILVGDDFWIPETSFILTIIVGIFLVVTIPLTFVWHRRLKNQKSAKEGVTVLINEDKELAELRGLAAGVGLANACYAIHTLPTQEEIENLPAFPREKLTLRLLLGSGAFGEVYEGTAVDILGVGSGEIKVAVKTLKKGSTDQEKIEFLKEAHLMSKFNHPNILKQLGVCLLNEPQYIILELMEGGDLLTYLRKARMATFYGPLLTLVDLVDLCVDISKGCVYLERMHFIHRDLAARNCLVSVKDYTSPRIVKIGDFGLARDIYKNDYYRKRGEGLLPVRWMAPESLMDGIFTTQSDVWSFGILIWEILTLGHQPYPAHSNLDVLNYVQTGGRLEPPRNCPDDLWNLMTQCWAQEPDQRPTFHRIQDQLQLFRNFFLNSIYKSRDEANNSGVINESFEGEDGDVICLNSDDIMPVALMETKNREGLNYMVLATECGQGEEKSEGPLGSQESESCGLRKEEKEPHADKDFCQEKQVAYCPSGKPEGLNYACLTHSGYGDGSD
T1 sequence (P08922 28-2347): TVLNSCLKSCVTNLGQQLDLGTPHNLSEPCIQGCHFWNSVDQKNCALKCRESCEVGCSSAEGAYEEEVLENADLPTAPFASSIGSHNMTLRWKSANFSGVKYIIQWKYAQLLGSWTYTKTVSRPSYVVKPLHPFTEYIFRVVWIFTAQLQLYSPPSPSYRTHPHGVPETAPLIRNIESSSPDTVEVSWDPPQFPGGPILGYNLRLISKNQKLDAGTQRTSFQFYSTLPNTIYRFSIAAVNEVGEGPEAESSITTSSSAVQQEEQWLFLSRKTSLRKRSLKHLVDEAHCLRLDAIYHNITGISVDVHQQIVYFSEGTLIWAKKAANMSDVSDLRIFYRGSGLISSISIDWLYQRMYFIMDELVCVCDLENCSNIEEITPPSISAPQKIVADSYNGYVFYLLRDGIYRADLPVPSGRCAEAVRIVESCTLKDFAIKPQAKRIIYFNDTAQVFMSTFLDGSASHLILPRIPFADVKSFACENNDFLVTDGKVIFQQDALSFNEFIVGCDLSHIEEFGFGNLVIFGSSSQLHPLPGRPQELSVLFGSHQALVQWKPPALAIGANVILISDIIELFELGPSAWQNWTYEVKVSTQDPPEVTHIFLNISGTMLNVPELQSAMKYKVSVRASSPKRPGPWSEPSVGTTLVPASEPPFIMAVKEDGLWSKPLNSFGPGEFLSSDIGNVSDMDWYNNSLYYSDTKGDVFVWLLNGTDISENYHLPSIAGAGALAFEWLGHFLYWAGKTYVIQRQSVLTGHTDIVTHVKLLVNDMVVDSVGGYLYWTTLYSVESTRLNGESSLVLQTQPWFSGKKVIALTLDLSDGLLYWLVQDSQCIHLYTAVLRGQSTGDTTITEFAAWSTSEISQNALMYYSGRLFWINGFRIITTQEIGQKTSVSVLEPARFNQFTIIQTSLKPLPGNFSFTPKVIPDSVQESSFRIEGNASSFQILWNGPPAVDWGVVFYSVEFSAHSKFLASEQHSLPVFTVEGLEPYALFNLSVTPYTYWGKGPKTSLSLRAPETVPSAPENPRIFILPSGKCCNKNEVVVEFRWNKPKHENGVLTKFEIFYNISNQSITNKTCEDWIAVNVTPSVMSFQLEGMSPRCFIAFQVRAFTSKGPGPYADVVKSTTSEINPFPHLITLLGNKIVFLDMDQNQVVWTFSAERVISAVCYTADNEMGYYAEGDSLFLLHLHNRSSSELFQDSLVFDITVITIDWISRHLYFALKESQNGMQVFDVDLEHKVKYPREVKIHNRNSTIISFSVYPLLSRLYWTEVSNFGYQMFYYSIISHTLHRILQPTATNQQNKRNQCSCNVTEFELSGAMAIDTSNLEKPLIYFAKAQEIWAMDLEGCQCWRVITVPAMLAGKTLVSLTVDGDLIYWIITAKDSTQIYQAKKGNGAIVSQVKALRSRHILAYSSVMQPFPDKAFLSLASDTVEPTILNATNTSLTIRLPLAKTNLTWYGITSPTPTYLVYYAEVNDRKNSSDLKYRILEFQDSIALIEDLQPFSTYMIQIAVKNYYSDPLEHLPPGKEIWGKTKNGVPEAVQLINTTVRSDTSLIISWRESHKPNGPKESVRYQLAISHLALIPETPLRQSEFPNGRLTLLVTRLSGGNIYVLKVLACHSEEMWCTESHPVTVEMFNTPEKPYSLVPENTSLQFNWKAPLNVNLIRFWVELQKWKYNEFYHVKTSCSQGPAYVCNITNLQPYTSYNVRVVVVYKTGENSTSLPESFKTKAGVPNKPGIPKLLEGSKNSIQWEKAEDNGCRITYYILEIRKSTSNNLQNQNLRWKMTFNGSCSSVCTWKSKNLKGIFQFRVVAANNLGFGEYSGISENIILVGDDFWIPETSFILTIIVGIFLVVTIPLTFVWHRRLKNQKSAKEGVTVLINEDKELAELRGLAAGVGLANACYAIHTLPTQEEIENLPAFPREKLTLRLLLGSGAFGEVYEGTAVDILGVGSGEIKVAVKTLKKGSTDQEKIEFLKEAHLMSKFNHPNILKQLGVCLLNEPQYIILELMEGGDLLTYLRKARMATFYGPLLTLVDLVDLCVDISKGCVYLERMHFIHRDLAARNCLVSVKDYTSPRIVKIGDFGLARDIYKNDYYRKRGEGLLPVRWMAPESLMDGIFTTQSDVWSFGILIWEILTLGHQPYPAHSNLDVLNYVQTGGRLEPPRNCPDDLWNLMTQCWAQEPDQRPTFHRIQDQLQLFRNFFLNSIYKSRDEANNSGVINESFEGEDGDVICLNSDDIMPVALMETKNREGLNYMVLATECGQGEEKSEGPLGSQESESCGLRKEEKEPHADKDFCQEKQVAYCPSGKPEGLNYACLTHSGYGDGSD
Ba/F3 cells containing Ros1 with a mutation at the gatekeeper residue (L2026M), sequence (P08922 whole entry L2026M, form open): as the sequence (P08922 whole entry, stated change not applied) above, with L2026M counted along it

Row | Compound | IC50 (Ros1 enzyme) [nM] | BaF3-ROS1-IL3 pIC50 [1] | Ba/F3 Ros1 L2026M (-IL-3) pIC50 [2] | CC50 [3] [µM] | EC50 [4] [nM] | CC50 [3, 5] [µM] | EC50 ([4]; HCC78 cells, 4 days, MTT) [nM] | HCC-78 PROL pEC50 ([4]; HCC78 cells, 4 days, MTT)
1 | CC(C)c1ccc(COc2cc(F)c(-c3c(-c4ccncc4)nn4c3C(=O)NCC4)cc2F)cc1 [Compound 14] | 6.31 | 7.8 | 8.2 | > 10 | < 31.6 | – | – | –
2 | CC(=O)OC(C)CN1CCn2nc(-c3ccncc3)c(-c3ccc(OCc4ccc(C(C)C)cc4)cc3)c2C1=O (stereo not drawn) [Compound 69] | 63.1 | 7.4 | <5 | – | – | > 10 | 200 | –
3 | CC(C)c1ccc(COc2ccc(-c3c(-c4ccncc4)nn4c3C(=O)N(CC3CNC(=O)O3)CC4)cc2)cc1 (stereo not drawn) [Compound 56] | 39.8 | 7.5 | 7.0 | > 10 | 126 | – | – | –
4 | CC(C)c1ccc(C(CO)Oc2ccc(-c3c(-c4ccncc4)nn4c3C(=O)NCC4)cc2)cc1 (stereo not drawn) [Compound 146] | 2000 | 6.2 | 7.6 | – | – | > 10 | 3980 | –
5 | CC(C)c1ccc(COc2c(F)cc(-c3c(-c4ccncc4)nn4c3C(=O)NCC4)cc2F)cc1 [Compound 15] | 39.8 | 7.5 | 7.5 | > 10 | 50.1 | – | – | –
6 | CC(C)c1ccc(COc2ccc(-c3c(-c4ccncc4)nn4c3C(=O)N(C(C)CO)CC4)cc2)cc1 (single isomer, unassigned) [Compound 39] | 79.4 | 7.3 | 7.0 | – | – | > 10 | – | 6.8
7 | CC(C)c1ccc(COc2ccc(-c3c(-c4ccncc4)nn4c3C(=O)NCC4)cc2)cc1CC(O)CO (stereo not drawn) [Compound 91] | 31.6 | 7.3 | 6.6 | > 10 | 63.1 | – | – | –
8 | CC(C)c1ccc(CC(=O)N2CC=C(c3c(-c4ccncc4)nn4c3C(=O)NCC4)CC2)cc1 [Compound 77] | 316 | 6.3 | 6.3 | > 10 | 2000 | – | – | –
9 | CNCCN1CCn2nc(-c3ccncc3)c(-c3ccc(OCc4ccc(C(C)C)cc4)cc3)c2C1=O [Compound 60] | 63.1 | 6.6 | 6.2 | – | – | 3.98 | 631 | –
10 | CC(C)c1ccc(COc2ccc(-c3c(-c4ccncc4)nn4c3CN(CCO)CC4)c(F)c2)cc1 [Compound 187] | 79.4 | 7.2 | 6.4 | > 10 | 100 | – | – | –
11 | CC(C)c1ccc(COc2ccc(-c3c(-c4ccncc4)nn4c3C(=O)NCC4)cc2)cc1OCCO [Compound 89] | 31.6 | 7.6 | 7.1 | > 10 | 200 | – | – | –
12 | CC(C)c1ccc(C(C)Oc2ccc(-c3c(-c4ccncc4)nn4c3C(=O)N(CCO)CC4)cc2)cc1 (stereo not drawn) [Compound 145] | 3160 | 5.8 | 5.1 | – | – | – | – | <5.5
13 | CC(C)c1ccc(COc2ccc(-c3c(-c4ccncc4)nn4c3C(=O)N(CCN(C)C)CC4)cc2)cc1 [Compound 61] | – | 6.3 | 5.9 | > 10 | 631 | – | – | –
